According to patent US20060079453A1, “Hla binding peptides and their uses” (priority 2002, published 2006):
Like-named read-outs stand apart in the source and are kept apart here. No end group written: not given here.

Experiments:
Assay in all cases: biochemical
Format in all cases: binding
HLA-DR DRB1*0401 (DR4) = HLA-DR DRB1*0401 (DR4) (Homo sapiens, UniProt P01903+P01911, A100K/A169T/F76Y/I96L/K127E/L162R/M171V/N62H/P40V/Q125Y/R42H/S133A/S149N/S66Y/V115G/V209L/W38E)
HLA-DR DRB1*0101 (DR1) = HLA-DR DRB1*0101 (DR1) (Homo sapiens, UniProt P01903+P01911, A100R/D57E/F55L/F60I/F76Y/I96L/L162R/M171V/P40L/Q125E/R42F/V115G/Y59C)
HLA-DR DRB1*0701 (DR7) = HLA-DR DRB1*0701 (DR7) (Homo sapiens, UniProt P01903+P01911, A100R/A102G/A103Q/D57E/D86V/E43K/F76Y/K127E/L162R/M171V/P40G/Q125H/Q99D/R33Q/R42Y/R54Q/S133A/S66F/T210M/V115G/Y107V/Y59L/Y89S)
HLA-DR DRB5*0101 (DR51) = HLA-DR DRB5*0101 (DR51) (Homo sapiens, UniProt P01903+Q30154); details: DRB5 *0101
HLA-DR DRB4*0101 (DR53) = HLA-DR DRB4*0101 (DR53) (Homo sapiens, UniProt P01903+P13762, G164S)
HLA-DR DRB1*1501 (DR15) = HLA-DR DRB1*1501 (DR15) (Homo sapiens, UniProt P01903+P01911)
HLA-DR DRB1*1302 (DR13) = HLA-DR DRB1*1302 (DR13) (Homo sapiens, UniProt P01903+P01911, A100E/A169T/K41T/L162R/M171V/P40S/Q125H/Q178H/Q39Y/Q99D/R42S/S66N/T262R/V115G/W38E/Y61H); details: read-out: DRBI *1302
Chain of HLA-DR DRB1*1302 (DR13) (P01903 26-254 limits assumed, other chains not shown): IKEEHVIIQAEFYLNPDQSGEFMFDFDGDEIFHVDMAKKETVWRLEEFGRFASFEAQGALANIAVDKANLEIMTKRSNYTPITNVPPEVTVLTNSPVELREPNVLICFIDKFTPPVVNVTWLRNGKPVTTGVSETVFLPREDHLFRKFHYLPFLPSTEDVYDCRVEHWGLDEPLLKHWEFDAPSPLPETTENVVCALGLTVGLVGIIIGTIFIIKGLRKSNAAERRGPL

| Compound | IC50 (HLA-DR DRB1*0401 (DR4); DRB1 *0401) | IC50 (HLA-DR DRB1*0101 (DR1); DRB1 *0101) | other results |
| --- | --- | --- | --- |
| C[C@H](N)C(=O)N[C@@H](C)C(=O)N[C@@H](C)C(=O)N[C@@H](C)C(=O)N[C@@H](C)C(=O)N[C@@H](C)C(=O)N[C@@H](C)C(=O)N[C@@H](C)C(=O)N[C@@H](C)C(=O)N[C@@H](C)C(=O)N[C@@H](C)C(=O)N[C@@H](C)C(=O)N[C@@H](CC(N)=O)C(=O)O | 500 nM | ≥ 50 µM |  |
| C[C@H](N)C(=O)N[C@@H](C)C(=O)N[C@@H](C)C(=O)N[C@@H](C)C(=O)N[C@@H](C)C(=O)N[C@@H](C)C(=O)N[C@@H](C)C(=O)N[C@@H](C)C(=O)N[C@@H](C)C(=O)N[C@@H](C)C(=O)N[C@@H](C)C(=O)N[C@@H](CC(N)=O)C(=O)N[C@@H](C)C(=O)O | 1000 nM | ≥ 50 µM |  |
| C[C@H](N)C(=O)N[C@@H](CO)C(=O)N[C@@H](C)C(=O)N[C@@H](C)C(=O)N[C@@H](C)C(=O)N[C@@H](C)C(=O)N[C@@H](C)C(=O)N[C@@H](C)C(=O)N[C@@H](C)C(=O)N[C@@H](C)C(=O)N[C@@H](C)C(=O)N[C@@H](C)C(=O)N[C@@H](C)C(=O)O |  | ≥ 50 µM |  |
| CC(C)C[C@H](NC(=O)[C@H](CCCCN)NC(=O)[C@H](C)NC(=O)[C@@H](NC(=O)[C@H](CCCCN)NC(=O)[C@H](CCCNC(=N)N)NC(=O)[C@H](CO)NC(=O)[C@H](CC(C)C)NC(=O)[C@H](C)NC(=O)[C@H](C)NC(=O)[C@H](CCC(N)=O)NC(=O)[C@H](Cc1ccccc1)NC(=O)[C@H](CCC(=O)O)NC(=O)[C@H](CO)NC(=O)[C@@H](N)CCC(=O)O)C(C)C)C(=O)O | 579 nM |  |  |
| C[C@H](NC(=O)[C@H](C)NC(=O)[C@H](C)NC(=O)[C@H](C)NC(=O)[C@H](C)NC(=O)[C@H](C)NC(=O)[C@H](C)NC(=O)[C@H](C)NC(=O)[C@H](C)NC(=O)[C@H](C)NC(=O)[C@H](C)NC(=O)[C@H](C)NC(=O)[C@@H](N)Cc1ccccc1)C(=O)O | 200 nM |  |  |
| CC[C@H](C)[C@H](N)C(=O)NCC(=O)N[C@@H](Cc1c[nH]cn1)C(=O)N[C@@H](CC(C)C)C(=O)N[C@@H](Cc1ccc(O)cc1)C(=O)N[C@H](C(=O)N[C@@H](Cc1ccccc1)C(=O)N[C@@H](C)C(=O)N[C@H](C(=O)N[C@@H](CS)C(=O)N[C@@H](CC(C)C)C(=O)NCC(=O)N[C@@H](CC(C)C)C(=O)N[C@@H](CO)C(=O)N[C@@H](Cc1ccc(O)cc1)C(=O)N[C@@H](CC(=O)O)C(=O)NCC(=O)N[C@@H](CC(C)C)C(=O)O)[C@@H](C)O)[C@@H](C)CC | > 816 nM |  |  |
| CC[C@H](C)[C@H](NC(=O)[C@@H](NC(=O)[C@@H]1CCCN1C(=O)[C@H](Cc1ccccc1)NC(=O)[C@H](Cc1ccccc1)NC(=O)[C@H](Cc1ccc(O)cc1)NC(=O)[C@H](CCC(N)=O)NC(=O)[C@H](Cc1c[nH]c2ccccc12)NC(=O)[C@H](CC(N)=O)NC(=O)CNC(=O)[C@@H](N)C(C)C)C(C)C)C(=O)N[C@@H](Cc1ccccc1)C(=O)N[C@@H](CO)C(=O)N[C@@H](CCCCN)C(=O)N[C@@H](C)C(=O)O | 4.1 nM | 0.037 µM | IC50 (HLA-DR DRB1*0701 (DR7); DRB1 *0701): 0.1 µM |
| (43)AADFGIFIDFHA |  |  | IC50 (HLA-DR DRB1*0401 (DR4); read-out: DRB1 *0401): 235 nM |
| (43)AAIGFFFFKKGIA |  |  | IC50 (HLA-DR DRB1*0401 (DR4); read-out: DRB1 *0401): 258 nM |
| (43)AAIGGIFIFKKDA |  |  | IC50 (HLA-DR DRB1*0401 (DR4); read-out: DRB1 *0401): 800 nM |
| (46)AAKTAAAFA |  |  | IC50 (HLA-DR DRB1*0101 (DR1); read-out: DRB1 *0101): 5 µM |
| (52)AAAATKAAAA |  |  | IC50 (HLA-DR DRB1*0101 (DR1); read-out: DRB1 *0101): 2 µM |
| AAAAASAAAAAAA | 235 nM | ≥ 50 µM |  |
| AAAKAAAAAAAAF | > 348 nM | > 1.67 µM |  |
| AAAKAAAAAAAFA |  | ≥ 50 µM |  |
| AAAKAAAAAAFAA | 235 nM |  |  |
| AAAKAAAAFAAAA |  | ≥ 50 µM |  |
| AAANAAAAAAAAA |  |  | IC50 (HLA-DR DRB1*0101 (DR1)): ≥ 50 µM |
| AADDDDDDDDDDA |  | ≥ 50 µM |  |
| AAEAAAATAKAAA |  | 2.5 µM |  |
| AAFFFFFGGGGGA | 800 nM | ≥ 50 µM |  |
| AAFIFIGGGKIKA | 195 nM | ≥ 50 µM |  |

| Compound | IC50 (HLA-DR DRB1*0401 (DR4); DRB1 *0401) | IC50 (HLA-DR DRB1*0101 (DR1); DRB1 *0101) | other results |
| --- | --- | --- | --- |
| AAKAAAAAAA(10)AA |  |  | IC50 (HLA-DR DRB1*0401 (DR4); read-out: DRB1 *0401): > 889 nM |
| AAKGIKIGFGIFA | 471 nM | ≥ 50 µM |  |
| AAKIFIGFFIDGA | 200 nM |  |  |
| AALKATAAAAAAA | 800 nM | ≥ 50 µM |  |
| AAYAAAATAKAAA |  |  | IC50 (HLA-DR DRB1*0401 (DR4); read-out: DRB1 *0401): 0.54 nM; IC50 (HLA-DR DRB1*0101 (DR1); read-out: DRB1 *0101): 0.0039 µM |
| ACAAAKATAAAA(10)AA |  |  | IC50 (HLA-DR DRB1*0101 (DR1); read-out: DRB1 *0101): 5 µM |
| AFAAAKTAA | 571 nM |  |  |
| AFAAAKTAA(72) |  |  | IC50 (HLA-DR DRB1*0101 (DR1); read-out: DRB1 *0101): 5 µM |
| AFLRAAAAAAFAA | 400 nM | ≥ 50 µM |  |
| AFLRQAAAAAFAAY | 1000 nM | 2.5 µM |  |
| AWVAWRNRCK |  |  | IC50 (HLA-DR DRB1*0101 (DR1); read-out: DRB1 *0101): ≥ 50 µM; IC50 (HLA-DR DRB1*0701 (DR7); read-out: DRB1 *0701): > 12.5 µM |
| Ac-ASQKRPSQRHGSKYLATAST |  |  | IC50 (HLA-DR DRB5*0101 (DR51)): 4.56 µM |
| DPNANPNVDPNAN |  |  | IC50 (HLA-DR DRB1*0401 (DR4); read-out: DRB1 *0401): 738 nM; IC50 (HLA-DR DRB1*0701 (DR7); read-out: DRB1 *0701): > 15.6 µM |
| EERVKKPLSEITIRC | 11900 nM |  | IC50 (HLA-DR DRB4*0101 (DR53); DRB4 *0101): 2990 nM; IC50 (HLA-DR DRB1*0701 (DR7); DRB1 *0701): 9.45 µM; IC50 (HLA-DR DRB5*0101 (DR51)): 7.91 µM |
| EGDAFELTVSC |  |  | IC50 (HLA-DR DRB1*0401 (DR4); read-out: DRB1 *0401): 572 nM |
| ENPVVAFFKNIVTPR |  |  | IC50 (HLA-DR DRB1*1501 (DR15); DRBI *1501): 2.8 nM; IC50 (HLA-DR DRB5*0101 (DR51)): 0.302 µM |
| ENPVVHAFKNIVTPR |  |  | IC50 (HLA-DR DRB1*1501 (DR15); DRBI *1501): 4.1 nM; IC50 (HLA-DR DRB5*0101 (DR51)): 0.91 µM |
| ENPVVHFFANIVTPR |  |  | IC50 (HLA-DR DRB1*1501 (DR15); DRBI *1501): 2.9 nM; IC50 (HLA-DR DRB5*0101 (DR51)): 6.24 µM |
| ENPVVHFFKIHVTPA |  |  | IC50 (HLA-DR DRB1*1501 (DR15); read-out: DRBI *1501): 2.5 nM |
| ESTGMTPEKVPVSEVM |  |  | IC50 (HLA-DR DRB1*1302 (DR13)): > 17.5 µM; IC50 (HLA-DR DRB4*0101 (DR53); read-out: DRB4 *0101): > 64400 nM |
| FFKNIVTFFKNIVT | > 667 nM | ≥ 50 µM | IC50 (HLA-DR DRB1*0701 (DR7); DRB1 *0701): > 12.5 µM |
| FLGQQQPFPPQ |  |  | IC50 (HLA-DR DRB4*0101 (DR53); DRB4 *0101): 31 nM |
